Data: the NIST ThermoML archive (doi:10.1016/j.jct.2007.08.002)
Where “and” joins values, the source holds several entries; their conditions need not be identical. Equal entries are not always repeated.

Experiment: molar heat capacity at saturation pressure

NC12CC3CC(CC(C3)C1)C2 [tricyclo(3.3.1.1:3,7)decan-1-amine]
Settings | molar heat capacity
196.06 K, Crystal 3, Small (less than 1 g) adiabatic calorimetry | 135.44 J/K/mol
197.25 K, Crystal 3, Small (less than 1 g) adiabatic calorimetry | 136.86 J/K/mol
197.97 K, Crystal 3, Small (less than 1 g) adiabatic calorimetry | 137.6 J/K/mol
199.25 K, Crystal 3, Small (less than 1 g) adiabatic calorimetry | 139.1 J/K/mol
199.88 K, Crystal 3, Small (less than 1 g) adiabatic calorimetry | 139.77 J/K/mol
200.91 K, Crystal 3, Small (less than 1 g) adiabatic calorimetry | 140.93 J/K/mol
201.79 K, Crystal 3, Small (less than 1 g) adiabatic calorimetry | 142.09 J/K/mol
202.24 K, Crystal 3, Small (less than 1 g) adiabatic calorimetry | 142.51 J/K/mol
203.56 K, Crystal 3, Small (less than 1 g) adiabatic calorimetry | 144.09 J/K/mol
204.88 K, Crystal 3, Small (less than 1 g) adiabatic calorimetry | 145.75 J/K/mol
206.19 K, Crystal 3, Small (less than 1 g) adiabatic calorimetry | 147.58 J/K/mol
207.51 K, Crystal 3, Small (less than 1 g) adiabatic calorimetry | 149.24 J/K/mol
207.53 K, Crystal 3, Small (less than 1 g) adiabatic calorimetry | 149.33 J/K/mol
208.81 K, Crystal 3, Small (less than 1 g) adiabatic calorimetry | 151.16 J/K/mol
209.45 K, Crystal 3, Small (less than 1 g) adiabatic calorimetry | 152.07 J/K/mol
210.11 K, Crystal 3, Small (less than 1 g) adiabatic calorimetry | 152.9 J/K/mol
211.36 K, Crystal 3, Small (less than 1 g) adiabatic calorimetry | 154.9 J/K/mol
211.41 K, Crystal 3, Small (less than 1 g) adiabatic calorimetry | 154.9 J/K/mol
212.7 K, Crystal 3, Small (less than 1 g) adiabatic calorimetry | 156.73 J/K/mol
213.28 K, Crystal 3, Small (less than 1 g) adiabatic calorimetry | 157.97 J/K/mol
213.99 K, Crystal 3, Small (less than 1 g) adiabatic calorimetry | 158.89 J/K/mol
215.2 K, Crystal 3, Small (less than 1 g) adiabatic calorimetry | 161.05 J/K/mol
215.27 K, Crystal 3, Small (less than 1 g) adiabatic calorimetry | 161.05 J/K/mol
216.55 K, Crystal 3, Small (less than 1 g) adiabatic calorimetry | 163.3 J/K/mol
217.12 K, Crystal 3, Small (less than 1 g) adiabatic calorimetry | 164.54 J/K/mol
217.82 K, Crystal 3, Small (less than 1 g) adiabatic calorimetry | 165.71 J/K/mol
219.04 K, Crystal 3, Small (less than 1 g) adiabatic calorimetry | 168.28 J/K/mol
219.1 K, Crystal 3, Small (less than 1 g) adiabatic calorimetry | 168.28 J/K/mol
220.36 K, Crystal 3, Small (less than 1 g) adiabatic calorimetry | 170.95 J/K/mol
220.96 K, Crystal 3, Small (less than 1 g) adiabatic calorimetry | 172.36 J/K/mol
221.61 K, Crystal 3, Small (less than 1 g) adiabatic calorimetry | 173.61 J/K/mol
222.86 K, Crystal 3, Small (less than 1 g) adiabatic calorimetry | 176.6 J/K/mol
222.88 K, Crystal 3, Small (less than 1 g) adiabatic calorimetry | 176.77 J/K/mol
224.1 K, Crystal 3, Small (less than 1 g) adiabatic calorimetry | 179.84 J/K/mol
224.8 K, Crystal 3, Small (less than 1 g) adiabatic calorimetry | 181.75 J/K/mol
225.33 K, Crystal 3, Small (less than 1 g) adiabatic calorimetry | 183.17 J/K/mol
226.55 K, Crystal 3, Small (less than 1 g) adiabatic calorimetry | 186.91 J/K/mol
226.72 K, Crystal 3, Small (less than 1 g) adiabatic calorimetry | 187.57 J/K/mol
227.76 K, Crystal 3, Small (less than 1 g) adiabatic calorimetry | 190.82 J/K/mol
228.63 K, Crystal 3, Small (less than 1 g) adiabatic calorimetry | 194.14 J/K/mol
228.97 K, Crystal 3, Small (less than 1 g) adiabatic calorimetry | 195.22 J/K/mol
230.16 K, Crystal 3, Small (less than 1 g) adiabatic calorimetry | 200.21 J/K/mol
230.54 K, Crystal 3, Small (less than 1 g) adiabatic calorimetry | 202.12 J/K/mol
231.34 K, Crystal 3, Small (less than 1 g) adiabatic calorimetry | 205.78 J/K/mol
232.45 K, Crystal 3, Small (less than 1 g) adiabatic calorimetry | 211.52 J/K/mol
232.51 K, Crystal 3, Small (less than 1 g) adiabatic calorimetry | 211.69 J/K/mol
233.67 K, Crystal 3, Small (less than 1 g) adiabatic calorimetry | 218.01 J/K/mol
234.36 K, Crystal 3, Small (less than 1 g) adiabatic calorimetry | 222.33 J/K/mol
234.81 K, Crystal 3, Small (less than 1 g) adiabatic calorimetry | 225.16 J/K/mol
235.93 K, Crystal 3, Small (less than 1 g) adiabatic calorimetry | 233.22 J/K/mol
236.25 K, Crystal 3, Small (less than 1 g) adiabatic calorimetry | 235.72 J/K/mol
237.04 K, Crystal 3, Small (less than 1 g) adiabatic calorimetry | 242.28 J/K/mol
238.14 K, Crystal 3, Small (less than 1 g) adiabatic calorimetry | 251.85 J/K/mol and 251.6 J/K/mol
239.22 K, Crystal 3, Small (less than 1 g) adiabatic calorimetry | 261.49 J/K/mol
240.04 K, Crystal 3, Small (less than 1 g) adiabatic calorimetry | 267.14 J/K/mol
240.28 K, Crystal 3, Small (less than 1 g) adiabatic calorimetry | 268.64 J/K/mol
241.32 K, Crystal 3, Small (less than 1 g) adiabatic calorimetry | 272.38 J/K/mol
241.94 K, Crystal 2 | 272.22 J/K/mol
242.37 K, Crystal 2 | 270.55 J/K/mol
243.42 K, Crystal 2 | 261.16 J/K/mol
243.89 K, Crystal 2 | 258.16 J/K/mol
244.49 K, Crystal 2 | 249.93 J/K/mol
245.89 K, Crystal 2 | 240.12 J/K/mol
247.88 K, Crystal 2 | 229.23 J/K/mol
249.84 K, Crystal 2 | 225.07 J/K/mol
251.78 K, Crystal 2 | 223.16 J/K/mol
253.73 K, Crystal 2 | 223.33 J/K/mol
255.66 K, Crystal 2 | 225.49 J/K/mol
257.59 K, Crystal 2 | 226.9 J/K/mol
259.52 K, Crystal 2 | 229.98 J/K/mol
261.45 K, Crystal 2 | 233.3 J/K/mol
263.38 K, Crystal 2 | 237.13 J/K/mol
265.31 K, Crystal 2 | 241.62 J/K/mol
267.23 K, Crystal 2 | 247.19 J/K/mol
269.16 K, Crystal 2 | 252.76 J/K/mol
271.09 K, Crystal 2 | 258.66 J/K/mol
273 K, Crystal 2 | 272.05 J/K/mol
274.91 K, Crystal 2 | 282.28 J/K/mol
276.81 K, Crystal 2 | 299.57 J/K/mol
278.68 K, Crystal 2 | 329.42 J/K/mol
280.53 K, Crystal 2 | 365.67 J/K/mol
282.42 K, Crystal 2 | 373.74 J/K/mol
288.85 K, Crystal 1, Small (less than 1 g) adiabatic calorimetry | 291.09 J/K/mol
293.37 K, Crystal 1, Small (less than 1 g) adiabatic calorimetry | 265.9 J/K/mol
295.36 K, Crystal 1, Small (less than 1 g) adiabatic calorimetry | 265.81 J/K/mol
297.3 K, Crystal 1, Small (less than 1 g) adiabatic calorimetry | 265.98 J/K/mol
299.23 K, Crystal 1, Small (less than 1 g) adiabatic calorimetry | 266.56 J/K/mol
301.17 K, Crystal 1, Small (less than 1 g) adiabatic calorimetry | 266.89 J/K/mol
303.1 K, Crystal 1, Small (less than 1 g) adiabatic calorimetry | 267.48 J/K/mol
305.04 K, Crystal 1, Small (less than 1 g) adiabatic calorimetry | 267.89 J/K/mol
306.98 K, Crystal 1, Small (less than 1 g) adiabatic calorimetry | 268.56 J/K/mol
308.92 K, Crystal 1, Small (less than 1 g) adiabatic calorimetry | 268.89 J/K/mol
309.23 K, Crystal 1, Small (less than 1 g) adiabatic calorimetry | 268.97 J/K/mol
310.85 K, Crystal 1, Small (less than 1 g) adiabatic calorimetry | 268.89 J/K/mol
311.41 K, Crystal 1, Small (less than 1 g) adiabatic calorimetry | 269.47 J/K/mol
312.79 K, Crystal 1, Small (less than 1 g) adiabatic calorimetry | 269.39 J/K/mol
313.59 K, Crystal 1, Small (less than 1 g) adiabatic calorimetry | 269.97 J/K/mol
314.73 K, Crystal 1, Small (less than 1 g) adiabatic calorimetry | 269.97 J/K/mol
315.77 K, Crystal 1, Small (less than 1 g) adiabatic calorimetry | 270.14 J/K/mol
316.67 K, Crystal 1, Small (less than 1 g) adiabatic calorimetry | 270.05 J/K/mol
317.96 K, Crystal 1, Small (less than 1 g) adiabatic calorimetry | 270.55 J/K/mol
318.61 K, Crystal 1, Small (less than 1 g) adiabatic calorimetry | 270.8 J/K/mol
320.14 K, Crystal 1, Small (less than 1 g) adiabatic calorimetry | 270.97 J/K/mol
320.55 K, Crystal 1, Small (less than 1 g) adiabatic calorimetry | 271.05 J/K/mol
322.32 K, Crystal 1, Small (less than 1 g) adiabatic calorimetry | 271.47 J/K/mol
324.44 K, Crystal 1, Small (less than 1 g) adiabatic calorimetry | 271.8 J/K/mol
324.5 K, Crystal 1, Small (less than 1 g) adiabatic calorimetry | 272.13 J/K/mol
326.39 K, Crystal 1, Small (less than 1 g) adiabatic calorimetry | 272.55 J/K/mol
326.7 K, Crystal 1, Small (less than 1 g) adiabatic calorimetry | 272.05 J/K/mol
328.33 K, Crystal 1, Small (less than 1 g) adiabatic calorimetry | 272.71 J/K/mol
328.88 K, Crystal 1, Small (less than 1 g) adiabatic calorimetry | 272.88 J/K/mol
330.27 K, Crystal 1, Small (less than 1 g) adiabatic calorimetry | 273.05 J/K/mol
331.06 K, Crystal 1, Small (less than 1 g) adiabatic calorimetry | 273.71 J/K/mol
332.22 K, Crystal 1, Small (less than 1 g) adiabatic calorimetry | 273.55 J/K/mol
333.25 K, Crystal 1, Small (less than 1 g) adiabatic calorimetry | 273.88 J/K/mol
334.16 K, Crystal 1, Small (less than 1 g) adiabatic calorimetry | 273.8 J/K/mol
335.43 K, Crystal 1, Small (less than 1 g) adiabatic calorimetry | 274.38 J/K/mol
336.11 K, Crystal 1, Small (less than 1 g) adiabatic calorimetry | 274.21 J/K/mol
337.62 K, Crystal 1, Small (less than 1 g) adiabatic calorimetry | 274.79 J/K/mol
338.05 K, Crystal 1, Small (less than 1 g) adiabatic calorimetry | 274.88 J/K/mol
339.81 K, Crystal 1, Small (less than 1 g) adiabatic calorimetry | 275.29 J/K/mol
340 K, Crystal 1, Small (less than 1 g) adiabatic calorimetry | 275.21 J/K/mol
341.94 K, Crystal 1, Small (less than 1 g) adiabatic calorimetry | 275.79 J/K/mol
342 K, Crystal 1, Small (less than 1 g) adiabatic calorimetry | 275.96 J/K/mol
343.89 K, Crystal 1, Small (less than 1 g) adiabatic calorimetry | 276.54 J/K/mol
344.18 K, Crystal 1, Small (less than 1 g) adiabatic calorimetry | 276.79 J/K/mol
345.84 K, Crystal 1, Small (less than 1 g) adiabatic calorimetry | 277.2 J/K/mol
346.37 K, Crystal 1, Small (less than 1 g) adiabatic calorimetry | 277.45 J/K/mol
347.78 K, Crystal 1, Small (less than 1 g) adiabatic calorimetry | 277.79 J/K/mol
348.56 K, Crystal 1, Small (less than 1 g) adiabatic calorimetry | 278.2 J/K/mol
349.73 K, Crystal 1, Small (less than 1 g) adiabatic calorimetry | 278.37 J/K/mol
350.75 K, Crystal 1, Small (less than 1 g) adiabatic calorimetry | 279.03 J/K/mol
351.68 K, Crystal 1, Small (less than 1 g) adiabatic calorimetry | 278.87 J/K/mol
352.94 K, Crystal 1, Small (less than 1 g) adiabatic calorimetry | 279.78 J/K/mol
353.63 K, Crystal 1, Small (less than 1 g) adiabatic calorimetry | 279.37 J/K/mol
355.12 K, Crystal 1, Small (less than 1 g) adiabatic calorimetry | 280.28 J/K/mol
355.58 K, Crystal 1, Small (less than 1 g) adiabatic calorimetry | 280.45 J/K/mol
357.31 K, Crystal 1, Small (less than 1 g) adiabatic calorimetry | 281.03 J/K/mol
357.53 K, Crystal 1, Small (less than 1 g) adiabatic calorimetry | 281.03 J/K/mol
359.47 K, Crystal 1, Small (less than 1 g) adiabatic calorimetry | 281.86 J/K/mol
359.5 K, Crystal 1, Small (less than 1 g) adiabatic calorimetry | 282.03 J/K/mol
361.42 K, Crystal 1, Small (less than 1 g) adiabatic calorimetry | 282.61 J/K/mol
361.71 K, Crystal 1, Small (less than 1 g) adiabatic calorimetry | 282.53 J/K/mol
363.37 K, Crystal 1, Small (less than 1 g) adiabatic calorimetry | 283.36 J/K/mol
363.9 K, Crystal 1, Small (less than 1 g) adiabatic calorimetry | 283.52 J/K/mol
365.32 K, Crystal 1, Small (less than 1 g) adiabatic calorimetry | 284.52 J/K/mol
366.08 K, Crystal 1, Small (less than 1 g) adiabatic calorimetry | 284.69 J/K/mol
367.27 K, Crystal 1, Small (less than 1 g) adiabatic calorimetry | 285.52 J/K/mol
